Results published in patent US20070141171A1, “NOVEL COMPOSITION AND METHOD FOR THE TREATMENT OF HYPERTENSION” (priority 2003, published 2007).

Columns and labels:
Assay type in all cases: cell-based
[1] = test system: cultured human aortic smooth muscle cells (SMC); assay: SMC collagen gel contraction stimulated by angiotensin II; details: for GA, % vs 100% control / increase in gel area (GA) vs ATII: 30 mcM; for GA, % vs 100% control: ATII alone 76%; for rank of effectiveness on ATII-induced gel contraction (catechins) / rank of effectiveness on ATII (polyphenols): at 30; for effect on ATII-induced gel: 1-4 mM, individual or comb; for activity as inhibitor of Ang II-stimulated gel contraction: summary statement
Procedure: Plant-derived bioflavonoids have been recognized to support arterial wall structural integrity and interfere with a variety of pro-atherosclerotic stimuli. We tested whether bioflavonoids have an effect on the contractile activity of cultured human aortic smooth muscle cells (SMC) embedded in a three-dimensional type I collagen (1 mg/mL) matrix. […]
The following starting material and equipment were used. • 1. Cultured vascular smooth muscle cells (SMC) isolated from human aorta.
Cells are used from 4th to 8th passages. • 2. Human collagen type I. • 3. Angiotensin II. • 4. Epican Forte (composition shown in Table 1, available from Matthias Rath, Inc., and all ingredients commercially available) • 5. Epigallocatechin gallate (EGCG) • 6. Quercetin (chemical structure is well defined) • 7. Cell culture medium (DMEM) • 8. 24 well plastic cell culture plate pre-incubated with 2 mg/ml bovine serum albumin. • 9. Digital camera • 10. Digital image analyzing software (Scion Corporation). • 11. Zymography gel electrophoresis assay (Novorex Corp).
Confluent culture of SMC and suspended from culture flask by trypsinization and washed with phosphate-buffered saline (PBS) from serum-containing medium. Cell concentration in suspension was brought to 500,000 cell per mL in serum-free DMEM. Cell suspension was then mixed 1:1 with ice-cold 2 mg/ml collagen type I solution in PBS. Final concentration of collagen was 1 mg/mL, final cell concentration is 250,000 per mL. Collagen-SMC suspension was distributed by 300 microL to the wells of 24 well plate in such a manner to cover the entire bottom surface of the well. The plate was then incubated for one hour at 37° C. to allow gel to polymerize. 0.5 mL of experimental serum-free medium containing no additions (control), […] was added to polymerized gel, plate was then gently tapped on the side to detach gel from the bottom of plastic well, and plate was then placed to incubator with the controlled atmosphere containing 5%CO2 at 37° C. for incubation. After 24 hour incubation plate was taken from the incubator and plate image with floating gels was taken using digital camera. Gel flat surface area is measured with digital image analyzing software. Sample of cell culture media was taken for analysis of matrix metalloproteinases activity by zymography (Novorex Corp). Experiments were performed in triplicates and results are presented as a mean +/−SD.

[2] = test system: cultured human aortic smooth muscle cells (SMC); assay: SMC collagen gel contraction stimulated by Thrombin; details: for GA, % vs 100% control: 30 mcM, Thrombin alone 70%
[3] = test system: cultured human aortic smooth muscle cells (SMC); assay: SMC collagen gel contraction stimulated by Angiotensin I; details: Mar. 25, 2003; ATI 330-1000 nM alone
[4] = Mar. 25, 2003, in combination with EF

Compound: N=C(N)NCCC[C@H](N)C(=O)O [Arginine]
- effect on ATII-induced gel reduction ([1]; Mar. 20, 2003, Arginine 0.5-2 mM): no significant effect

Compound: NCCCC[C@H](N)C(=O)O [Lysine]
- effect on ATII GA reduction ([1]; Mar. 28, 2003, 0.25-1 mM): did not effect

Compound: C[C@@H]1O[C@@H](OC[C@H]2O[C@@H](Oc3c(-c4ccc(O)c(O)c4)oc4cc(O)cc(O)c4c3=O)[C@H](O)[C@@H](O)[C@@H]2O)[C@H](O)[C@H](O)[C@H]1O [Rutin]
- GA, % vs 100% control ([1]; Apr. 2, 2003): 80%
- GA, % vs 100% control ([2]; Apr. 2, 2003): 56%

Compound: O=C(O)[C@@H]1CCCN1 [Proline]
- effect on ATII GA reduction ([1]; Mar. 28, 2003, 0.25-1 mM): did not effect

Compound: O=C(O[C@@H]1Cc2c(O)cc(O)cc2O[C@@H]1c1ccc(O)c(O)c1)c1cc(O)c(O)c(O)c1 [ECG]
- rank of effectiveness on ATII-induced gel contraction (catechins) ([1]; Apr. 17, 2003): more effective than EC=C

Compound: Angiotensin I (DRVYIHPFHL; Angiotensin-1; UniProt P01019 25-34, looked up) [ATI, stimulus of gel contraction]
- gel reduction [3]: gel reduction at 1000 nM only

Compound: O=c1c(-c2ccc(O)cc2)coc2cc(O)cc(O)c12 [Genistein]
- GA, % vs 100% control ([1]; Apr. 2, 2003): 96%
- rank of effectiveness on ATII (polyphenols) ([1]; Apr. 17, 2003): Querc30=>Genist30=>Resver30=>Rutin30
- increase in gel area (GA) vs ATII ([1]; Mar. 25, 2003, alone): 34%
- increase in gel area (GA) vs ATII [1, 4]: 11%
- GA, % vs 100% control ([2]; Apr. 2, 2003): 78%

Compound: [Ca+2] [Ca]
- effect on ATII-induced gel ([1]; Mar. 20, 2003): no effects

Compound: Thrombin [reference compound]
- GA reduced by ([2]; Apr. 2, 2003, Thrombin alone at 1 mcM): 30%
- effect on gel contraction ([2]; Mar. 7, 2003, Thrombin 0.1 U/mL alone): no effects
- gel reduced by ([2]; Mar. 10, 2003, Thrombin 0.1 U/mL alone, 9% in control): 58%

Compound: O=C(O[C@@H]1Cc2c(O)cc(O)cc2O[C@@H]1c1cc(O)c(O)c(O)c1)c1cc(O)c(O)c(O)c1 [EGCG, Epigallocatechin gallate]
- activity as inhibitor of Ang II-stimulated gel contraction ([1]; 1 micromol/L Ang II, 24 hours): most active inhibitors of gel contraction
- inhibition of Ang II-induced gel contraction ([1]; 30 micromol/L, 1 micromol/L Ang II, 24 hours): 97%
- GA, % vs 100% control ([1]; Apr. 2, 2003): 150%
- effect on gel contraction by ATII ([1]; Apr. 17, 2003, EGCG 3.3-10-30 mcM): dose-dependently reduced gel contraction
- rank of effectiveness on ATII-induced gel contraction (catechins) ([1]; Apr. 17, 2003): more effective than ECG30
- gel reduction to % of 100% control ([1]; Mar. 18, 2003, ATII 1 mcM + EGCG 15 mcM): 30%
- GA, % vs 100% control ([2]; Apr. 2, 2003): 206%

Compound: O=c1c(O)c(-c2ccc(O)c(O)c2)oc2cc(O)cc(O)c12 [Quercetin]
- activity as inhibitor of Ang II-stimulated gel contraction ([1]; 1 micromol/L Ang II, 24 hours): most active inhibitors of gel contraction
- GA, % vs 100% control ([1]; Apr. 2, 2003): 167%
- rank of effectiveness on ATII (polyphenols) ([1]; Apr. 17, 2003): Querc30=>Genist30=>Resver30=>Rutin30
- inhibition at 30 µM ([1]; Homo sapiens, 30 micromol/L, 1 micromol/L Ang II, 24 hours, read-out: inhibition of Ang II-induced gel contraction): 120%
- GA, % vs 100% control ([2]; Apr. 2, 2003): 133%

Compound: Oc1cc(O)c2c(c1)OC(c1ccc(O)c(O)c1)C(O)C2 (stereo not drawn) [C]
- rank of effectiveness on ATII-induced gel contraction (catechins) ([1]; Apr. 17, 2003): EC=C

Compound: [Mg+2] [Mg]
- effect on ATII-induced gel ([1]; Mar. 20, 2003): no effects

Compound: CC(=O)N[C@@H](CS)C(=O)O [NAC, N-Acetyl Cystein]
- GA returned to % of control ([1]; Mar. 26, 2003, NAC 2 mcM, ATII 1 mcM (21% reduction)): 100%
- effect on ATII GA reduction ([1]; Mar. 26, 2003, NAC higher concentration up to 60 mcM): did not have any effect

Compound: O=C1O[C@H]([C@@H](O)CO)C(O)=C1O [AsA, ascorbic acid]
- activity as inhibitor of Ang II-stimulated gel contraction ([1]; 1 micromol/L Ang II, 24 hours): not significantly active
- effect on ATII GA reduction ([1]; Apr. 2, 2003, AsA 200 mcM): had no effect
- effect on ATII-induced gel reduction ([1]; Apr. 17, 2003, AsA 500 mcM alone): did not have effect
- effect on ATII-induced gel reduction ([1]; Apr. 17, 2003, AsA 500 mcM in combination with 10 EGCG): did not have effect
- gel reduction to % of 100% control ([1]; Mar. 18, 2003, ATII 1 mcM + AsA 100 mcM): 30%
- gel reduction to % vs 100% ATII 1 mcM ([1]; Mar. 20, 2003, AsA 0.5 mM + ATII): 90%
- effect on Thrombin GA reduction ([2]; Apr. 2, 2003, AsA 200 mcM): had no effect

Compound: Oc1cc(O)c2c(c1)O[C@H](c1ccc(O)c(O)c1)[C@H](O)C2 [EC]
- rank of effectiveness on ATII-induced gel contraction (catechins) ([1]; Apr. 17, 2003): EC=C

Compound: Oc1ccc(C=Cc2cc(O)cc(O)c2)cc1 [Resveratrol]
- GA, % vs 100% control ([1]; Apr. 2, 2003): 88%
- rank of effectiveness on ATII (polyphenols) ([1]; Apr. 17, 2003): Querc30=>Genist30=>Resver30=>Rutin30
- effect on gel area vs ATII ([1]; Mar. 25, 2003, 15 mcM, alone): no effect
- effect on EF effect ([1]; Mar. 25, 2003, 15 mcM, with EF): no effect
- increase in gel area (GA) vs ATII ([1]; Mar. 25, 2003, alone): 45%
- increase in gel area (GA) vs ATII [1, 4]: 104%
- GA, % vs 100% control ([2]; Apr. 2, 2003): 106%

Compound: Angiotensin II (DRVYIHPF; Angiotensin-2; UniProt P01019 25-32, looked up) [ATII, stimulus of gel contraction, reference compound]
- GA reduced by ([1]; Apr. 2, 2003, ATII alone at 1 mcM): 24%
- effect on gel contraction ([1]; Mar. 7, 2003, ATII 1 mcM alone): no effects
- gel reduction to % of Control 100% ([1]; Mar. 11, 2003, ATII 1 mcM alone): 59%
- gel reduction to % of 100% control ([1]; Mar. 18, 2003, ATII 1 mcM alone): 23%
- gel reduction to % of 100% control ([1]; Mar. 20, 2003, ATII 1 mcM alone): 81%
- reduction in gel ([1]; Mar. 25, 2003, ATII 110-330-1000 nM alone): dose dependent reduction in gel
- GA reduction ([1]; Mar. 26, 2003, ATII 1 mcM alone): 21%
